Laboratory results reported in PubChem BioAssay AID2060909 (Molecular Pharmacology Branch, DTP, NCI, 2025).

System: 362531-283-R-J2-PDC complex spheroid viability
Test: Anticancer human tumor 362531-283-R-J2-PDC patient-derived colon adenocarcinoma cell line growth inhibition [RAS]
Conditions: for IC50: curve of first compound; for viability, T/C: stronger effect = lower value
From the text: RAS pathway inhibitors in Combinations in Complex Spheroids
A high-throughput screen of multi-cell type tumor spheroids was designed to identify active combinations of RAS pathway inhibitors and targeted small molecules. Complex spheroids include a stromal component modeled by human endothelial cells (HUVEC) and fibroblasts modeled by human mesenchymal stem cells (MSCs). The concentration ranges selected for each drug and investigational agent were based upon clinically achievable concentrations if the clinical Cmax of the agent was known.
Compounds. The drugs and investigational agents: abemaciclib (NSC768073), cobimetinib (NSC768068), divarasib (GDC6063, NSC841802), docetaxel (NSC628503), GDC-1971 (RLY-1971, NSC841576), gemcitabine (NSC613327), inavolisib (NSC800729), ipatasertib (NSC767898), KB-0742 (NSC834161), MRTX-1133 (NSC836407), osimertinib (NSC779217), RMC-4630 (NSC839698), RMC-6236 (NSC851965), RMC-6291 (NSC852671), Ro-3306 (NSC812927), sapanisertib (NSC764658), SN-38 (NSC673596), staurosporine (NSC755774), SY5609 (NSC837396), and tovorafenib (DAY101, NSC766906), were obtained from the National Cancer Institute (NCI) Developmental Therapeutics Program Chemical Repository. The FDA-approved anticancer drug set is available from the NCI Developmental Therapeutics Program. […] The stock solutions were prepared in dimethyl sulfoxide (DMSO, Sigma-Aldrich, St. Louis, MO, cat. D2650) at 800-fold the tested concentration and stored at -70 degrees C prior to their use. All drugs and investigational agents were tested over a range starting from a high concentration at or near the clinical Cmax and decreasing in half-log increments. If the clinical Cmax for an agent had not been determined, the highest concentration tested was 10 microM.
Cell Culture. All cells were maintained in an incubator at 37 degrees C and 5% CO2 with 95% humidity. The PDC lines were cultured according to standard operating procedures established by the NCI PDMR. All PDCs were thawed and cultured in Matrigel-coated flasks prepared with a working solution of 1X Ham's F-12 nutrient mix, without supplementation (Invitrogen, Waltham, MA, cat. 11765054), 100 U/mL penicillin-streptomycin (Invitrogen, cat. 15140122), and 2.5% Matrigel (Corning Inc., Corning, NY, cat. 354248) for the first three passages. The 362531-283-R-J2-PDC and 782815-120-R-J1-PDC lines were cultured in 6C/Colon 1B media, which includes advanced DMEM/F-12 (Thermo Fisher Scientific, cat. 12634028), 10 mM HEPES (Thermo Fisher Scientific, cat. 15630080), 1X GlutaMAX supplement (Thermo Fisher Scientific, cat. 35050061), 0.1 mg/mL primocin (InvivoGen, San Diego, CA, cat. ant-pm-2), 10% defined fetal bovine serum, heat inactivated (HyClone Laboratories Inc., Logan, UT, cat. SH30070.03HI), 50% L-WRN conditioned media (ATCC, cat. CRL-3276), 1.25 mM N-Acetyl-L-cysteine (Sigma-Aldrich, cat. A9165), 10 mM nicotinamide (Sigma-Aldrich, cat. N0636), 1X B-27 supplement (Thermo Fisher Scientific, cat. 17504044), 1X N-2 supplement (Thermo Fisher Scientific, cat. 17502048), 50 ng/mL human EGF (Thermo Fisher Scientific, cat. PHG0311), and 10 microM Y-27632 dihydrochloride (Tocris Bioscience, cat. 1254). The K12877-001-R-J1-PDC line was cultured in 6I media, which includes all 6C/Colon 1B media plus 10 ng/mL human FGF-10 (PeproTech, cat. 100-26), 1 ng/mL human FGF-2 (PeproTech, cat. 100-18B), 1 µM prostaglandin E2 (Tocris Bioscience, cat. 2296), […] hydrocortisone (Sigma-Aldrich, cat. H4001), and […] bovine insulin (Sigma-Aldrich, cat. I6634). The K86415-001-R-J1-PDC line was cultured in 6D media, which includes all 6C/Colon 1B media components minus the L-WRN conditioned media. The 485176-168-R4-J1-PDC was cultured in PANC media, which includes all 6C/Colon 1B media plus 100 ng/mL human FGF-10 (PeproTech, cat. 100-26), 500 nM SB-431542 (Selleckchem, cat. S1067), and 10 nM gastrin (Tocris Bioscience, cat. 3006). […]
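Note: spheroids exposed to the agents for 7 days before readout.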
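Throughout, for viability, T/C: luminescence viability as percent of DMSO vehicle control wells.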

**Q.** Which results are given for `CC(C)NCC(C(=O)N1CCN(c2ncnc3c2C(C)CC3O)CC1)c1ccc(Cl)cc1` (centres undefined) + C=CC(=O)N1CCN(c2nc(OCC3CCCN3C)nc3c(F)c(-c4nc(N)cc(C)c4C(F)(F)F)c(Cl)cc23)C(C)C1?
**A.** IC50 (second compound 0.00316 µM): > 10 µM; IC50 (second compound 0.01 µM): > 10 µM; IC50 (second compound 0.0316 µM): > 10 µM; IC50 (second compound 0.1 µM): > 10 µM; IC50 (second compound 0.316 µM): > 10 µM; IC50 (second compound 1 µM): > 10 µM; viability, T/C (second compound 0.00316 µM, first compound 0.0316 µM): 109%; viability, T/C (second compound 0.00316 µM, first compound 0.1 µM): 98.7%; viability, T/C (second compound 0.00316 µM, first compound 0.316 µM): 103%; viability, T/C (second compound 0.00316 µM, first compound 1 µM): 91.2%; viability, T/C (second compound 0.00316 µM, first compound 3.16 µM): 97%; viability, T/C (second compound 0.00316 µM, first compound 10 µM): 92.5%; viability, T/C (second compound 0.01 µM, first compound 0.0316 µM): 93.7%; viability, T/C (second compound 0.01 µM, first compound 0.1 µM): 101%; viability, T/C (second compound 0.01 µM, first compound 0.316 µM): 90.7%; viability, T/C (second compound 0.01 µM, first compound 1 µM): 94.6%; viability, T/C (second compound 0.01 µM, first compound 3.16 µM): 106%; viability, T/C (second compound 0.01 µM, first compound 10 µM): 107%; viability, T/C (second compound 0.0316 µM, first compound 0.0316 µM): 90.5%; viability, T/C (second compound 0.0316 µM, first compound 0.1 µM): 104%; viability, T/C (second compound 0.0316 µM, first compound 0.316 µM): 101%; viability, T/C (second compound 0.0316 µM, first compound 1 µM): 102%; viability, T/C (second compound 0.0316 µM, first compound 3.16 µM): 103%; viability, T/C (second compound 0.0316 µM, first compound 10 µM): 94.9%; viability, T/C (second compound 0.1 µM, first compound 0.0316 µM): 94.2%; viability, T/C (second compound 0.1 µM, first compound 0.1 µM): 94.5%; viability, T/C (second compound 0.1 µM, first compound 0.316 µM): 105%; viability, T/C (second compound 0.1 µM, first compound 1 µM): 96.8%; viability, T/C (second compound 0.1 µM, first compound 3.16 µM): 111%; viability, T/C (second compound 0.1 µM, first compound 10 µM): 102%; viability, T/C (second compound 0.316 µM, first compound 0.0316 µM): 95.4%; viability, T/C (second compound 0.316 µM, first compound 0.1 µM): 105%; viability, T/C (second compound 0.316 µM, first compound 0.316 µM): 101%; viability, T/C (second compound 0.316 µM, first compound 1 µM): 96.8%; viability, T/C (second compound 0.316 µM, first compound 3.16 µM): 111%; viability, T/C (second compound 0.316 µM, first compound 10 µM): 92.5%; viability, T/C (second compound 1 µM, first compound 0.0316 µM): 98.6%; viability, T/C (second compound 1 µM, first compound 0.1 µM): 101%; viability, T/C (second compound 1 µM, first compound 0.316 µM): 95.7%; viability, T/C (second compound 1 µM, first compound 1 µM): 102%; viability, T/C (second compound 1 µM, first compound 3.16 µM): 104%; viability, T/C (second compound 1 µM, first compound 10 µM): 86.8%

**Q.** `CC(C)NCC(C(=O)N1CCN(c2ncnc3c2C(C)CC3O)CC1)c1ccc(Cl)cc1` (centres undefined) + CCn1c(-c2cccnc2C(C)OC)c2c3cc(ccc31)N1CCOC(CC(NC(=O)C(C(C)C)N(C)C(=O)C3(F)CCN(C(=O)C#CC(C)(C)N(C)C)CC3)C(=O)N3CCCC(N3)C(=O)OCC(C)(C)C2)C1 was tested. Which IC50 (second compound 0.000949 µM) did it give?
**A.** > 10 µM

**Q.** What about the IC50 (second compound 0.003 µM) of the same compound?
**A.** > 10 µM

**Q.** And the IC50 (second compound 0.00949 µM)?
**A.** > 10 µM

**Q.** What about the IC50 (second compound 0.03 µM) of the same compound?
**A.** > 10 µM

**Q.** And the IC50 (second compound 0.0949 µM)?
**A.** > 10 µM

**Q.** What about the IC50 (second compound 0.3 µM) of the same compound?
**A.** > 10 µM

**Q.** What about the viability, T/C (second compound 0.000949 µM, first compound 0.0316 µM) of the same compound?
**A.** 97.8%

**Q.** And the viability, T/C (second compound 0.000949 µM, first compound 0.1 µM)?
**A.** 106%

**Q.** And the viability, T/C (second compound 0.000949 µM, first compound 0.316 µM)?
**A.** 91.4%

**Q.** And the viability, T/C (second compound 0.000949 µM, first compound 1 µM)?
**A.** 94.4%

**Q.** What about the viability, T/C (second compound 0.000949 µM, first compound 3.16 µM) of the same compound?
**A.** 101%

**Q.** And the viability, T/C (second compound 0.000949 µM, first compound 10 µM)?
**A.** 93.5%

**Q.** And the viability, T/C (second compound 0.003 µM, first compound 0.0316 µM)?
**A.** 103%

**Q.** What about the viability, T/C (second compound 0.003 µM, first compound 0.1 µM) of the same compound?
**A.** 105%

**Q.** And the viability, T/C (second compound 0.003 µM, first compound 0.316 µM)?
**A.** 94.4%

**Q.** What about the viability, T/C (second compound 0.003 µM, first compound 1 µM) of the same compound?
**A.** 92.9%

**Q.** What about the viability, T/C (second compound 0.003 µM, first compound 3.16 µM) of the same compound?
**A.** 94.1%

**Q.** What about the viability, T/C (second compound 0.003 µM, first compound 10 µM) of the same compound?
**A.** 101%

**Q.** What about the viability, T/C (second compound 0.00949 µM, first compound 0.0316 µM) of the same compound?
**A.** 92.9%

**Q.** What about the viability, T/C (second compound 0.00949 µM, first compound 0.1 µM) of the same compound?
**A.** 100%

**Q.** What about the viability, T/C (second compound 0.00949 µM, first compound 0.316 µM) of the same compound?
**A.** 95%

**Q.** And the viability, T/C (second compound 0.00949 µM, first compound 1 µM)?
**A.** 98.8%

**Q.** What about the viability, T/C (second compound 0.00949 µM, first compound 3.16 µM) of the same compound?
**A.** 98.3%

**Q.** What about the viability, T/C (second compound 0.00949 µM, first compound 10 µM) of the same compound?
**A.** 99%

**Q.** And the viability, T/C (second compound 0.03 µM, first compound 0.0316 µM)?
**A.** 104%

**Q.** What about the viability, T/C (second compound 0.03 µM, first compound 0.1 µM) of the same compound?
**A.** 87.4%

**Q.** What about the viability, T/C (second compound 0.03 µM, first compound 0.316 µM) of the same compound?
**A.** 96.7%

**Q.** And the viability, T/C (second compound 0.03 µM, first compound 1 µM)?
**A.** 86.2%

**Q.** What about the viability, T/C (second compound 0.03 µM, first compound 3.16 µM) of the same compound?
**A.** 97.3%

**Q.** What about the viability, T/C (second compound 0.03 µM, first compound 10 µM) of the same compound?
**A.** 100%

**Q.** What about the viability, T/C (second compound 0.0949 µM, first compound 0.0316 µM) of the same compound?
**A.** 92.2%

**Q.** What about the viability, T/C (second compound 0.0949 µM, first compound 0.1 µM) of the same compound?
**A.** 91.1%

**Q.** What about the viability, T/C (second compound 0.0949 µM, first compound 0.316 µM) of the same compound?
**A.** 103%

**Q.** And the viability, T/C (second compound 0.0949 µM, first compound 1 µM)?
**A.** 88.1%

**Q.** What about the viability, T/C (second compound 0.0949 µM, first compound 3.16 µM) of the same compound?
**A.** 94.9%

**Q.** And the viability, T/C (second compound 0.0949 µM, first compound 10 µM)?
**A.** 94.3%

**Q.** And the viability, T/C (second compound 0.3 µM, first compound 0.0316 µM)?
**A.** 90.8%

**Q.** What about the viability, T/C (second compound 0.3 µM, first compound 0.1 µM) of the same compound?
**A.** 94.1%

**Q.** And the viability, T/C (second compound 0.3 µM, first compound 0.316 µM)?
**A.** 97.8%

**Q.** And the viability, T/C (second compound 0.3 µM, first compound 1 µM)?
**A.** 91.9%

**Q.** What about the viability, T/C (second compound 0.3 µM, first compound 3.16 µM) of the same compound?
**A.** 98.9%

**Q.** And the viability, T/C (second compound 0.3 µM, first compound 10 µM)?
**A.** 92%
